{"source": "patent US10603298B2", "about": "“Succinate dehydrogenase inhibitors (SDHi's)” (Medical Research Council, priority 2014, dated 2020)", "key": {"complex II": {"system": "complex II", "conditions": "cited from earlier work; for concentration to achieve half-maximal inhibition: Drose et al 2011"}, "[1]": {"system": "ischemia-reperfusion injury", "conditions": "chemical preconditioning, rats; Hu et al, Hirata et al; cited from earlier work"}, "[2]": {"system": "succinate accumulation in the ischaemic myocardium", "test": "Succinate accumulation in the ischaemic myocardium in vivo (LC-MS)", "conditions": "i.v. infusion in vivo, mouse; 30 min ischaemia", "method": "For the in vivo heart IR model an open-chest, in situ heart model was used^31,32. Male mice (8-10 weeks; Charles River Laboratories, UK) were anaesthetised with sodium pentobarbital (70 mg/kg intraperitoneally (i.p.)), intubated endotracheally and ventilated with 3 cm H2O positive-end expiratory pressure. Adequacy of anaesthesia was monitored using corneal and withdrawal reflexes. Ventilation frequency was kept at 110 breaths per minute with tidal volume between 125-150 μL. A thoracotomy was performed and the heart exposed by stripping the pericardium. A prominent branch of the left anterior descending coronary artery (LAD) was surrounded by a 7-0 Prolene suture that was then passed through a small plastic tube. Ischaemia was induced by tightening the tubing against the heart surface. To assess metabolites during IR in vivo, mice were divided into three groups: 30 min ischaemia, 30 min ischaemia plus 5 min reperfusion and 30 min sham-operation in which the suture was placed but the LAD was not occluded. At the end of each protocol tissue was removed from the at risk and peripheral areas of the heart, selected visually by comparing white versus red tissue, and snap-frozen in liquid nitrogen. Sham-operated tissue was removed from the presumed risk zone. Infarct size was assessed after 30 min of ischaemia followed by 120 min reperfusion using 2% triphenyltetrazolium chloride staining and is expressed as a percentage of the risk zone^33. […] For the LC separation, column A was Sequant Zic-Hilic (150 mm×4.6 mm, internal diameter 3.5 μm) with a guard column (20 mm×2.1 mm 3.5 μm) from HiChrom, Reading, UK. […] (150 mm×2.1 mm i.d. 3.5 μm) with guard column (20 mm×2.1 mm i.d. […]) from HiChrom, Reading, UK. […] Spectra were analysed using both targeted and untargeted approaches. For the targeted approach spectra were analysed using XCalibur Qual Browser and XCalibur Quan Browser softwares (Thermo Scientific) by referencing to an internal library of compounds. […] The arrays of spectra were then statistically analysed using the functions explore.data and univariate of the R package mum a^40."}, "[3]": {"system": "heart, simulated ischemia-reperfusion injury", "conditions": "Wojtovich et al 2009; mKATP channel dependent mechanism; cited from earlier work"}, "[4]": {"system": "ischaemic succinate accumulation (GABA shunt)", "test": "Ex vivo perfused mouse heart, no flow ischaemia: succinate abundance (LC-MS)", "conditions": "30 min no flow ischaemia, vigabatrin 100, 300, 700 μM", "method": "FIG. 9: Effect of GABA transaminase inhibition by vigabatrin on GABA shunt and CAC metabolites in the ischaemic myocardium. Perfused mouse hearts were subjected to 30 min no flow ischaemia±continuous infusion of vigabatrin (Vig; 100, 300, and 700 μM) 10 min prior to ischaemia. Heart tissue was snap frozen and a, GABA and b, succinate abundance quantified relative to normoxic levels by LC-MS. n=3, * p<0.05.\nMice were heparinised (200 U i.p.) and anaesthetised with sodium pentobarbital (100 mg/kg i.p.). […]\nEqual amounts wet weight murine tissue were lysed in 250 μL extraction solution (ES; 30% acetonitrile, 50% methanol and 20% water) per 10 mg tissue in Precellysis 24 vials, following the manufacturer's instructions. […] For the LC separation, column A was Sequant Zic-Hilic (150 mm×4.6 mm, internal diameter 3.5 μm) with a guard column (20 mm×2.1 mm 3.5 μm) from HiChrom, Reading, UK. […] Gradient: 0-3 min 80% B, 25 min 20% B, 26 min 80% B, 36 min 80% B. Column B was sequant Zic-pHilic (150 mm×2.1 mm i.d. 3.5 μm) with guard column (20 mm×2.1 mm i.d. 3.5 Mm) from HiChrom, Reading, UK. […] Spectra were analysed using both targeted and untargeted approaches. For the targeted approach spectra were analysed using XCalibur Qual Browser and XCalibur Quan Browser softwares (Thermo Scientific) by referencing to an internal library of compounds. […]"}}}
{"smiles": "O=C(O)CC[N+](=O)[O-]", "note": "[3-nitropropionate]", "values": [{"measurement": "reversibility of complex II inhibition", "setting": "complex II", "value": "irreversible"}, {"measurement": "ischemia-reperfusion injury", "setting": "[1]", "value": "reduced ischemia-reperfusion injury"}]}
{"smiles": "NC(=O)c1ncn([C@@H]2O[C@H](CO)[C@@H](O)[C@H]2O)c1N", "note": "[AICAR, 5-amino-1-β-D-ribofuranosyl-imidazole-4-carboxamide]", "values": [{"measurement": "succinate accumulation in the ischaemic myocardium", "setting": "[2]", "value": "decreased ischaemic succinate levels"}]}
{"smiles": "NOCC(=O)O", "note": "[AOA, aminooxyacetate]", "values": [{"measurement": "succinate accumulation in the ischaemic myocardium", "setting": "[2]", "value": "decreased ischaemic succinate levels"}]}
{"smiles": "O=C(CC(=O)C(F)(F)F)c1cccs1", "note": "[TTFA, 2-thenoyltrifluoroacetone]", "values": [{"measurement": "reversibility of complex II inhibition", "setting": "complex II", "value": "irreversible"}]}
{"smiles": "COc1[nH]c(=O)c(C(=O)[C@@H](C)C[C@H](C)[C@@H](Cl)CCl)c(O)c1OC", "note": "[atpennin A5]", "values": [{"measurement": "protection of the heart against simulated ischemia-reperfusion injury", "setting": "[3]", "value": "protects the heart against simulated ischemia-reperfusion injury"}, {"measurement": "concentration to achieve half-maximal inhibition", "setting": "complex II", "value": "nanomolar levels"}, {"measurement": "reversibility of complex II inhibition", "setting": "complex II", "value": "irreversible"}]}
{"smiles": "O=C(O)CC(=O)O", "note": "[malonate]", "values": [{"measurement": "concentration to achieve half-maximal inhibition", "setting": "complex II", "value": "millimolar levels"}]}
{"smiles": "C=CC(N)CCC(=O)O", "note": "(stereo not shown) [vigabatrin]", "values": [{"measurement": "ischaemic succinate accumulation", "setting": "[4]", "value": "did not decrease ischaemic succinate accumulation"}]}
